What all share (format): cell-based
Holding throughout (set-up): scale not given: the % may be the effect or the level left

For test [1], the system named is Presenilin-1 (Homo sapiens), P49768 [P117L]. The experiment in a line: Reduction of human PS1 P117L mutant-induced amyloid beta42 level in CHO cells overexpressing human APP751 at 30 uM after 24 hrs by liquid phase electrochemiluminescence assay relative to control.
Test [2] relates to Presenilin-1 (Homo sapiens), P49768 [G384A]. The test is described as follows: Reduction of human PS1 G384A mutant-induced amyloid beta42 level in CHO cells overexpressing human APP751 at 60 uM after 24 hrs by liquid phase electrochemiluminescence assay relative to control.
Test [3] deals with CHO. The test is described as follows: Reduction of human PS1 delta exon9 mutant-induced amyloid beta-42 level in CHO cells overexpressing human APP751 at 30 uM after 24 hrs by liquid phase electrochemiluminescence assay relative to control.
Test [4] deals with Presenilin-1 (Homo sapiens), P49768 [G384A]. The test is described as follows: Reduction of human PS1 G384A mutant-induced amyloid beta42 level in CHO cells overexpressing human APP751 at 30 uM after 24 hrs by liquid phase electrochemiluminescence assay relative to control.
Test [5] deals with Presenilin-1 (Homo sapiens), P49768 [S290C,M292D]. The test is described as follows: Reduction of human PS1 S290C/M292D mutant-induced amyloid beta-42 level in CHO cells overexpressing human APP751 at 30 uM after 24 hrs by liquid phase electrochemiluminescence assay relative to control.
Test [6] relates to Presenilin-1 (Homo sapiens), P49768 [M292D,M146L]. The test is described as follows: Reduction of human PS1 M292D/M146L mutant-induced amyloid beta-42 level in CHO cells overexpressing human APP751 at 30 uM after 24 hrs by liquid phase electrochemiluminescence assay relative to control.
Test [7] has as its system CHO. The test is described as follows: Reduction of human PS1 delta 291 to 319 deletion mutant-induced amyloid beta-42 level in CHO cells overexpressing human APP751 at 60 uM after 24 hrs by liquid phase electrochemiluminescence assay relative to control.
Test [8] concerns Presenilin-1 (Homo sapiens), P49768 [M292D,M146L]. The experiment in a line: Reduction of human PS1 M292D/M146L mutant-induced amyloid beta42 level in CHO cells overexpressing human APP751 at 60 uM after 24 hrs by liquid phase electrochemiluminescence assay relative to control.
Test [9] deals with Presenilin-1 (Homo sapiens), P49768 [S290C]. The experiment in a line: Reduction of human PS1 S290C mutant-induced amyloid beta-42 level in CHO cells overexpressing human APP751 at 30 uM after 24 hrs by liquid phase electrochemiluminescence assay relative to control.
Test [10] has as its system Presenilin-1 (Homo sapiens), P49768 [P117L]. The experiment in a line: Reduction of human PS1 P117L mutant-induced amyloid beta42 level in CHO cells overexpressing human APP751 at 60 uM after 24 hrs by liquid phase electrochemiluminescence assay relative to control.
The subject of test [11] is Presenilin-1 (Homo sapiens), P49768 [M292D]. The test is described as follows: Reduction of human PS1 M292D mutant-induced amyloid beta-42 level in CHO cells overexpressing human APP751 at 30 uM after 24 hrs by liquid phase electrochemiluminescence assay relative to control.
The test system of test [12] is CHO. The experiment in a line: Reduction of human PS1 delta exon9 mutant-induced amyloid beta-42 level in CHO cells overexpressing human APP751 at 60 uM after 24 hrs by liquid phase electrochemiluminescence assay relative to control.
The target of test [13] is Presenilin-1 (Homo sapiens) (UniProt P49768). The experiment in a line: Reduction of human wild type human PS1-induced amyloid beta-42 level in CHO cells overexpressing human APP751 at 60 uM after 24 hrs by liquid phase electrochemiluminescence assay relative to control.
For test [14], the system named is Presenilin-1 (Homo sapiens), P49768 [L166P]. The test is described as follows: Reduction of human PS1 L166P mutant-induced amyloid beta42 level in CHO cells overexpressing human APP751 at 30 uM after 24 hrs by liquid phase electrochemiluminescence assay relative to control.
The test system of test [15] is Presenilin-1 (Homo sapiens), P49768 [S290C]. The test is described as follows: Reduction of human PS1 S290C mutant-induced amyloid beta-42 level in CHO cells overexpressing human APP751 at 60 uM after 24 hrs by liquid phase electrochemiluminescence assay relative to control.
Test [16] has as its system Presenilin-1 (Homo sapiens), P49768 [L166P]. The test is described as follows: Reduction of human PS1 L166P mutant-induced amyloid beta42 level in CHO cells overexpressing human APP751 at 60 uM after 24 hrs by liquid phase electrochemiluminescence assay relative to control.
Test [17] concerns the target Presenilin-1 (Homo sapiens) (UniProt P49768). The experiment in a line: Reduction of wild type human PS1-induced amyloid beta42 level in CHO cells overexpressing human APP751 at 30 uM after 24 hrs by liquid phase electrochemiluminescence assay relative to control.
Test [18] relates to Presenilin-1 (Homo sapiens), P49768 [M292D]. The experiment in a line: Reduction of human PS1 M292D mutant-induced amyloid beta42 level in CHO cells overexpressing human APP751 at 60 uM after 24 hrs by liquid phase electrochemiluminescence assay relative to control.
Test [19] has as its system CHO. The experiment in a line: Reduction of human PS1 delta 291 to 319 deletion mutant-induced amyloid beta-42 level in CHO cells overexpressing human APP751 at 30 uM after 24 hrs by liquid phase electrochemiluminescence assay relative to control.

In the case of `CSc1ccc(/C=C2/C(C)=C(CC(=O)O)c3cc(F)ccc32)cc1`, the Activity in test [1] is 100%; in test [2], 90.3%; with CHO [3] it was 99.7%; in test [4] it was 95.1%; in [5], 82.4%; in test [6], 73.2%. The Activity is 82.7% in the test on CHO [7]; 58.5% in test [8]; 83.8% in [9]; 88.5% in [10]; 89.5% in test [11]; 99.5% with CHO [12]. The Activity in test [13] came out at 61.6%; in test [14], 99.5%; in test [15], 65.9%; in [16], 99.2%; in test [17] it was 78.2%; in test [18], 73.9%. This compound also gave an Activity in the test on CHO [19] of 88.7%.

Source of the values: ChEMBL document CHEMBL1156480, “Insensitivity to Abeta42-lowering nonsteroidal anti-inflammatory drugs and gamma-secretase inhibitors is common among aggressive presenilin-1 mutations” (J Biol Chem, 2007).
